Results published in patent publication US20080171716A1, “NUCLEIC ACID MODULATION OF TOLL-LIKE RECEPTOR-MEDIATED IMMUNE STIMULATION” (Protiva Biotherapeutics, Inc., priority 2006, published 2008).

Columns and labels:
TLR7 [1] = biological target: T1, TLR7 (Mus musculus, UniProt P58681); experiment: In vivo inhibition of loxoribine-mediated cytokine induction in mice; parameters: from tissue; host or cells: whole animal: female Balb/C mice, plasma cytokines; species or system Balb/C mice
T1 sequence (P58681 27-1050): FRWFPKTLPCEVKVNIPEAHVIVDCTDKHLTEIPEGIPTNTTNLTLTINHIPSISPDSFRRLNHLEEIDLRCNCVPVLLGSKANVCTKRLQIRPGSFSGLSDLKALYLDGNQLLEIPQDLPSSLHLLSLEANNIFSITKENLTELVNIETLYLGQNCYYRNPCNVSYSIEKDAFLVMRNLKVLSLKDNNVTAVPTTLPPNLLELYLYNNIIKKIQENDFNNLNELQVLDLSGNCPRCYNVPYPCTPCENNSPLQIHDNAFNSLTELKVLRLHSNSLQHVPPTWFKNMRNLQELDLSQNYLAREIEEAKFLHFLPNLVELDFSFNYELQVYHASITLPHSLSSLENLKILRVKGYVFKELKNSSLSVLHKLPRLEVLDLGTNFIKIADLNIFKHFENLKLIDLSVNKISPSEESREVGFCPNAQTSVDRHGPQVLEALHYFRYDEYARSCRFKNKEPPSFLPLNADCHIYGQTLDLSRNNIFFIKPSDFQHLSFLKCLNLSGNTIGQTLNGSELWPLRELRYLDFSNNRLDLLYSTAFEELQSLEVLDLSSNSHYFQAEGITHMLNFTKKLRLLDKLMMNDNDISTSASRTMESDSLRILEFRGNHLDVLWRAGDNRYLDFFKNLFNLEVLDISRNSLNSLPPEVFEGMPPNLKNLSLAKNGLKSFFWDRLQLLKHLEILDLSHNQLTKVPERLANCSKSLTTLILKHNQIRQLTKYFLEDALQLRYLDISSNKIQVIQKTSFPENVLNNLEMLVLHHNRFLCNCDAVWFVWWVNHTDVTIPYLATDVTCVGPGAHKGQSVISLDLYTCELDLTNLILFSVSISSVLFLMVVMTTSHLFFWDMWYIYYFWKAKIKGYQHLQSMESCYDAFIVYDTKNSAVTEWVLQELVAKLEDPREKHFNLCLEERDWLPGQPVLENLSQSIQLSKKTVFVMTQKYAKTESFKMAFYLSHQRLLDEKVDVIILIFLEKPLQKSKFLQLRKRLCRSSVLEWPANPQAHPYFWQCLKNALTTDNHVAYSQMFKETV
Description: Cytokine ELISA. All cytokines were quantified using sandwich ELISA kits according to the manufacturer's instructions. These were mouse and human IFN-α (PBL Biomedical; Piscataway, N.J.) and IL-6 (eBioscience; San Diego, Calif.).
In Vivo Cytokine Induction. Animal studies were performed at Protiva Biotherapeutics in accordance with Canadian Council on Animal Care guidelines and following protocol approval by the local Animal Care and Use Committee. Female Balb/C mice were subjected to a two-week quarantine and acclimation period prior to use at six to eight-weeks of age. RNA formulations were administered by standard injection in the lateral tail vein in 0.2 ml PBS. Six hours after injection, blood was collected by cardiac puncture and processed as plasma for cytokine analysis. In experiments studying inhibition of cytokine induction by loxoribine, formulated RNA (100 μg) was administered IV 2 h prior to IV administration of 1 mg loxoribine in PBS. Blood was collected by cardiac puncture 2 h after administration of loxoribine and processed as plasma for cytokine analysis.

TLR7 [2] = biological target: T1, TLR7; experiment: Immunostimulatory ssRNA-induced IFN-α/IL-6 production in murine Flt3L-derived dendritic cells; format: cell-based; parameters: Femurs and tibiae of female Balb/C mice were isolated; endogenous in cells; host or cells: Flt3L-derived dendritic cells cultured from bone marrow of female Balb/C mice; conditions: murine Flt3L DC; 1:1 molar ratio; 24 h
Description: Lipid Encapsulation of RNA and ODN. RNA or ODN were encapsulated in liposomes by a process of spontaneous vesicle formation as described in Judge et al., supra, and Jeffs et al., Pharm. Res., 22:362-372 (2005).
Flt3L-derived dendritic cells (DC) were generated as described in Gilliet et al., J. Exp. Med., 195:953-958 (2002), using 100 ng/ml murine Flt3-ligand (Peprotech) supplemented media. Femurs and tibiae of female Balb/C mice were isolated and rinsed in sterile PBS. The ends of bones were cut and marrow harvested in complete media (RPMI 1640, 10% heat inactivated FBS, 1% penicillin/streptomycin, 2 mM L-glutamine, 1 mM sodium pyruvate, 25 mM HEPES, 50 μM 2-mercaptoethanol). Bone marrow cells were passed through a 70 μm strainer and centrifuged at 1000 rpm for 7 min. and resuspended in complete media supplemented with 100 ng/ml murine Flt3L to 2×10^6 cells/ml. 2 ml of cells were seeded in 6-well plates and 1 ml fresh media was added every two to three days. On day 9 of culture, non-adherent cells were washed in complete media and plated into 96-well plates at concentrations ranging from 0.5 to 2.5×10^5 cells/well. […]
Cytokine ELISA. All cytokines were quantified using sandwich ELISA kits according to the manufacturer's instructions. […]

[3] = 100 μg formulated RNA IV 2 h prior to 1 mg Lox IV, plasma 2 h after Lox

**Q.** “polyUmod21: 2′OMe-uridine homopolymer of 21 nucleotides in length (UUUUUUUUUUUUUUUUUUUUU; all 2'-O-methyl, backbone not given here)” was tested. Which “reduction of plasma IFN-α compared to PBS pre-treatment” value (TLR7 [1]; [3]) did it give?
**A.** Its value is 79%+/−5%.

**Q.** What about the “reduction of plasma IFN-α compared to mice treated with GFP-S ssRNA” value (TLR7 [1]; [3]) of the same substance?
**A.** The value was 92%+/−2%.

**Q.** What about the “reduction of plasma IL-6 compared to PBS pre-treatment” value (TLR7 [1]; [3]) of the same substance?
**A.** Its value is 72%+/−8%.

**Q.** And the “reduction of plasma IL-6 compared to mice treated with GFP-S ssRNA” value (TLR7 [1]; [3])?
**A.** The value was 96%+/−1%.

**Q.** What about the “loxoribine-mediated cytokine induction relative to GFP-S ssRNA and PBS treated mice” value (TLR7 [1]; pre-treatment 2 h prior to 1 mg Lox) of the same substance?
**A.** Its value is “significantly reduced”.

**Q.** And the “IFN-α production induced by immunostimulatory ssRNA when co-administered” value (TLR7 [2])?
**A.** The value was “completely abrogated measurable”.

**Q.** And the “IL-6 production induced by immunostimulatory ssRNA when co-administered” value (TLR7 [2])?
**A.** The value was “completely abrogated measurable”.
